{
  "source": "ChEMBL document CHEMBL2057178",
  "about": "“Novel synthetic route to the C-nucleoside, 2-deoxy benzamide riboside” (Bioorg Med Chem Lett, 2012)",
  "type_in_all_cases": "functional, cell-based",
  "key": {"MCF7 [1]": {"system": "MCF7", "experiment": "Growth inhibition of human MCF7 cells at 50 uM"}, "PC-3 [2]": {"system": "PC-3", "experiment": "Growth inhibition of human PC3 cells at 500 uM"}, "DU-145": {"system": "DU-145", "experiment": "Growth inhibition of human DU145 cells up to 1 mM relative to DMSO-treated control"}, "PC-3 [3]": {"system": "PC-3", "experiment": "Growth inhibition of human PC3 cells up to 1 mM relative to DMSO-treated control"}, "T47D": {"system": "T47D", "experiment": "Growth inhibition of human T47D cells up to 1 mM relative to DMSO-treated control"}, "MCF7 [4]": {"system": "MCF7", "experiment": "Growth inhibition of human MCF7 cells up to 1 mM relative to DMSO-treated control"}, "NCI-H460": {"system": "NCI-H460", "experiment": "Growth inhibition of human H460 cells up to 1 mM relative to DMSO-treated control"}, "HCT-116": {"system": "HCT-116", "experiment": "Growth inhibition of human HCT116 cells up to 1 mM relative to DMSO-treated control"}, "HT-29": {"system": "HT-29", "experiment": "Growth inhibition of human HT-29 cells up to 1 mM relative to DMSO-treated control"}, "RKO": {"system": "RKO", "experiment": "Growth inhibition of human RKO cells up to 1 mM relative to DMSO-treated control"}},
  "note": "The source made the active and inactive calls. The calls are words filed in the database; no cut-off is given here.",
  "data": [
    {"smiles": "NC(=O)c1cccc([C@@H]2O[C@H](CO)[C@@H](O)[C@H]2O)c1", "values": [
      {"measurement": "growth inhibition (GI)", "setting": "MCF7 [1]", "value": "Active"}
    ]},
    {"smiles": "NC(=O)c1csc([C@@H]2O[C@H](CO)[C@@H](O)[C@H]2O)n1", "values": [
      {"measurement": "growth inhibition (GI)", "setting": "PC-3 [2]", "value": "Active"}
    ]},
    {"smiles": "NC(=O)c1cccc([C@H]2C[C@H](O)[C@@H](CO)O2)c1", "note": "(racemic)", "values": [
      {"measurement": "growth inhibition (GI)", "setting": "DU-145", "value": "inactive"},
      {"measurement": "growth inhibition (GI)", "setting": "PC-3 [3]", "value": "inactive"},
      {"measurement": "growth inhibition (GI)", "setting": "T47D", "value": "inactive"},
      {"measurement": "growth inhibition (GI)", "setting": "MCF7 [4]", "value": "inactive"},
      {"measurement": "growth inhibition (GI)", "setting": "NCI-H460", "value": "inactive"},
      {"measurement": "growth inhibition (GI)", "setting": "HCT-116", "value": "inactive"},
      {"measurement": "growth inhibition (GI)", "setting": "HT-29", "value": "inactive"},
      {"measurement": "growth inhibition (GI)", "setting": "RKO", "value": "inactive"}
    ]}
  ]
}
